US20110076293A1, “TRIPTOLIDE DERIVATIVES FOR MODULATION OF APOPTOSIS AND IMMUNOSUPPRESSION” (priority 2002, published 2011)
Where a name gives a salt, the structure may show the parent alone. Read-outs that look alike come from different tables or passages of the source.

Key:
[1] = test system: Jurkat human T lymphocyte cell line; assay: Apoptosis assay (Annexin V) of compounds incubated with human serum
Procedure: (§1) Compounds of formula I, as shown in Table 1 above and in the Examples, were assayed for their capacity to induce apoptosis in cells from the Jurkat human T lymphocyte cell line, after incubation with pooled human serum for varying periods of time at 37° C. (see Example 19). An ester prodrug, triptolide-14-succinate, designated PG490-88, was included for comparison. The extent of conversion to triptolide after such incubation was also independently determined by HPLC analysis.
The ED50 values (column 3) are calculated directly from the data in each experiment, and the % conversion values (column 4) are calculated as percent of the ED50 value produced by triptolide, designated PG490, incubated in the same plasma (i.e. in the same experiment).
A. Incubation of compounds with human serum. Pooled human serum was stored in aliquots at −80° C. Test compounds were added at 20 mM to thawed human serum in 1.5 ml microfuge tubes and incubated at 37° C. in a water bath for varying periods of time. The test samples were placed on ice until dilution for the bioassay. Controls consisted of the compounds incubated in complete tissue culture medium (RPMI 1640 medium plus 5% heat-inactivated fetal calf serum, 1% HEPES, 1% pen/strep, 1% glutamine) rather than human serum.
B. Apoptosis assay of compounds incubated with human serum. Test samples were diluted to 1 mM in complete tissue culture medium. Aliquots were placed in microculture plates and serial dilutions were prepared so that the final concentration would encompass the range of 1 to 10,000 nM with half-log increments. Cells from an exponentially expanding culture of the Jurkat human T lymphocyte cell line (#TIB-152 obtained from American Type Culture Collection, Manassas, Va.) were harvested, washed once by centrifugation and dilution in complete tissue culture medium, and diluted to a concentration of 1×10^6 cells/ml. A volume of 100 μl of Jurkat cells (1×10^5 cells) was added to wells containing 100 μl of the diluted compounds, and the plates were incubated at 37° C. in a 5% CO2 incubator. After 24 hours, the plates were centrifuged to pellet the cells, and the cells were washed twice with 2% heat-inactivated fetal calf serum in PBS. To each well, 500 ul of binding buffer was added according to the Annexin V assay procedure (BioVision, Inc., Mountain View, Calif.). Next, 5 μl of the fluorescein isothiocyanate (FITC) conjugate of Annexin V (BioVision, Inc.) was added to each well, followed by 5 minutes of incubation in the dark. In some assays, propidium iodide (BioVision, Inc.) was added at this stage to check for necrotic cells. The contents of the wells were individually transferred into test tubes, and apoptosis was analyzed using a FACSCalibur flow cytometer (BD Immunocytometry Systems, San Jose, Calif.). Cells positive for Annexin V binding were considered to be apoptotic, and the data were calculated as percent apoptotic cells.
(§2) C. Comparison of bioactivities after incubation of compounds in human serum. The data were plotted as the concentration of compound incubated in serum versus percent apoptotic cells. The concentration of compound inducing 50% apoptosis (ED50) was calculated from these dose response curves. […] This percentage conversion was used to compare the bioactivity of various compounds after incubation in human serum.

in vitro = settings: for half-life: human, plasma; for max. conversion at 48 hr in human plasma by HPLC: incomplete conversion to triptolide, 48 hr incubation
Procedure: as §1
Prodrug conversions to triptolide as determined independently by HPLC are given in […].

[2] = test system: IL-2 production in Jurkat human T lymphocyte cells; assay: IL-2 production assay for activity of compounds incubated with human serum; settings: for IC50: IL-2 production in Jurkat cells after incubation with pooled human serum for 48 hours at 37° C.; for Conversion (%): percent of the IC50 value produced by triptolide (PG490) in the same experiment, human serum 48 hours
Procedure: Several compounds of formula I were analyzed for their capacity to inhibit IL-2 production in Jurkat human T lymphocyte cells, after incubation with pooled human serum for 48 hours at 37° C. (see Example 20). An ester prodrug, triptolide-14-succinate, designated PG490-88, was included for comparison.
The IC50 values (column 1) are calculated directly from the data in each experiment. The % conversion values (column 2) are calculated as the percent of the IC50 value produced by triptolide, designated PG490, incubated in the same plasma (i.e. in the same experiment).
A. IL-2 production assay for activity of compounds incubated with human serum. Test samples were diluted to 1 mM in complete tissue culture medium. […] Cells from an exponentially expanding culture of the Jurkat human T lymphocyte cell line (#TIB-152 obtained from American Type Culture Collection, Manassas, Va.) were harvested, washed once by centrifugation and dilution in complete tissue culture medium, and diluted to a concentration of 2×10^6 cells/ml. A volume of 50 μl of Jurkat cells (1×10^5 cells) was added to wells containing 100 μl of the diluted compounds, 50 μl of PMA (10 ng/ml) was added to each well, and the plates were incubated at 37° C. in a 5% CO2 incubator. After 24 hours, the plates were centrifuged to pellet the cells, 150 μl of supernatant was removed from each well, and the samples were stored at −20° C. The stored supernatants were analyzed for human IL-2 concentration using the Luminex 100 (Luminex Corporation, Austin, Tex.), Luminex microspheres coupled with anti-IL-2 capture antibody, and fluorochrome-coupled anti-IL-2 detection antibody. The data were expressed as ng/ml of IL-2.
as §2, with “B.” for “C.”, “IL-2 concentration.” for “percent apoptotic cells.”, “inducing a” for “inducing”, “decrease in the IL-2 concentration (IC50)” for “apoptosis (ED50)”

[3] = Homo sapiens, Jurkat, 48 h, read-out: ED50 (nM) in apoptosis assay after incubation with serum, incubation time in human serum 48 hours, 37° C.
[4] = incubation time in human serum 48 hours

| Compound | EC50 [1, 3] | Conversion, as relative ED50 compared to triptolide (%) [1, 4] | half-life (in vitro) | IC50 ([2]; Homo sapiens, Jurkat, 48 h) | Conversion (%) [2] | EC50 ([1]; Homo sapiens, Jurkat, 0.5 h, read-out: ED50 (nM) in apoptosis assay after incubation with serum, incubation time in human serum 0.5 hours, 37° C.) | Conversion, as relative ED50 compared to triptolide (%) ([1]; incubation time in human serum 0.5 hours) | max. conversion at 48 hr in human plasma by HPLC (in vitro) | Conversion, as relative ED50 compared to triptolide (%) ([1]; incubation time in human serum 1 hour) | EC50 ([1]; read-out: ED50 (nM) in apoptosis assay after incubation with serum, incubation time in human serum 1 hour, 37° C.) | IC50 [2] |
| --- | --- | --- | --- | --- | --- | --- | --- | --- | --- | --- | --- |
| CC(C)[C@]12O[C@H]1[C@@H]1O[C@]13[C@]1(O[C@H]1C[C@H]1C4=C(CC[C@@]13C)C(=O)OC4)[C@@H]2OC(=O)Oc1ccccc1 [PG676, Triptolide 14-Phenyl Carbonate] | 56 nM | 96% | 15 min | 0.006 µM | 84% | – | – | – | – | – | – |
| COC(=O)COC(=O)O[C@@H]1[C@@]2(C(C)C)O[C@H]2[C@@H]2O[C@]23[C@]12O[C@H]2C[C@H]1C2=C(CC[C@@]13C)C(=O)OC2 [PG680, Triptolide 14-Methoxycarbonylmethyl Carbonate] | 58 nM | 85% | 9 min | 0.003 µM | 44% | – | – | – | – | – | – |
| CCOCCOC(=O)O[C@@H]1[C@@]2(C(C)C)O[C@H]2[C@@H]2O[C@]23[C@]12O[C@H]2C[C@H]1C2=C(CC[C@@]13C)C(=O)OC2 [PG679, Triptolide 14-Ethoxyethyl Carbonate] | – | – | 11 min | 0.012 µM | 11% | 39 nM | 128% | – | – | – | – |
| CC(C)[C@]12O[C@H]1[C@@H]1O[C@]13[C@]1(O[C@H]1C[C@H]1C4=C(CC[C@@]13C)C(=O)OC4)[C@@H]2OC(=O)OCC(=O)O [PG687tris, Tris(hydroxymethyl)aminomethane Salt of Triptolide 14-Hydroxycarbonyl-methyl Carbonate] | 960 nM | 6% | – | 0.029 µM | 6% | – | – | max. 10% at | – | – | – |
| CC(C)[C@]12O[C@H]1[C@@H]1O[C@]13[C@]1(O[C@H]1C[C@H]1C4=C(CC[C@@]13C)C(=O)OC4)[C@@H]2OC(=O)OCCN(C)C.Cc1ccc(S(=O)(=O)O)cc1 [PG682PTSA, p-Toluenesulfonate Salt of Triptolide 14-Dimethylaminoethyl Carbonate] | – | – | 17 min | – | 97% | – | – | – | 89% | 57 nM | 0.002 µM |
| CC(C)[C@]12O[C@H]1[C@@H]1O[C@]13[C@]1(O[C@H]1C[C@H]1C4=C(CC[C@@]13C)C(=O)OC4)[C@@H]2OC(=O)OCC(=O)O [PG687, Triptolide 14-Hydroxycarbonylmethyl Carbonate] | – | 6% | – | 0.061 µM | 2% | – | – | 10% | – | – | – |
